From patent US5733929A, “Pharmaceutical composition for treating or preventing allergic rhinitis” (Takeda Chemical Industries, Ltd., priority 1993, dated 1998)
Counter-ions that a name gives are not always drawn.

How the values were obtained:
[1] = system: allergic experimental rhinitis; experiment: Experiment 1: inhibitory effects on allergic experimental rhinitis in guinea pigs (pigment leakage after antigen perfusion); format: in vivo; details: 30 mg/kg, oral, 1 hour before antigen
Experimental: Inhibitory effects on allergic experimental rhinitis in guinea pigs
Hartley male guinea pigs weighing 350 to 450 g were used. Aerosol of 1% ovalbumin (OA) in physiological saline was prepared using an ultrasonic nebulizer and administered to the guinea pigs by inhalation for 10 minutes. Thus the guinea pigs were sensitized. One week later, the antigen was administered again by inhalation, and the guinea pigs were used for this experiment after one week. The following experiment procedures were carried out by reference to the method of Kojima et al. (Allergy, Vol. 35, p. 180-187 (1986)).
The sensitized guinea pigs were anesthetized by administering pentobarbital (30 mg/kg) intraperitoneally. […] The collected sample was centrifuged at 3000 rpm for 10 minutes, and the absorbance of the supernatant at 620 nm was measured with a spectrophotometer to calculate the pigment concentration.
The drug was suspended in 5% gum arabic (G.A.) solution and was orally administered 1 hour before the antigen induction. The inhibitory ratio (%) was calculated as a ratio of the amount of the leaked pigment to the maximum amount of the leaked pigment in the control group 10 minutes after the antigen induction. […]

ICR male mice = experiment: oral toxicity in mice; format: in vivo; details: 1000 mg/kg, five ICR male mice (5 weeks old), 7 days
Source text: The compounds to be used as an active ingredient in the present invention have low toxicity. […] The compound to be used as an active ingredient in the present invention can be used as it is or as a pharmaceutical composition (e.g., tablets, granules, capsules including soft capsules and microcapsules, liquid preparations, injections, suppositories, nasal drops, eye drops, etc.) prepared by mixing the compound with a per se known pharmaceutically acceptable carrier, diluent, excipient, etc., for treating or preventing allergic rhinitis, particularly nasal congestion in a mammal. The administration route may be oral or parenteral. The dose varies with the subject to be administered, administration route, symptoms, etc. For example, for oral administration to an adult patient, a unit dose of normally about 0.1 mg/kg to 20 mg/kg body weight, preferably 0.1 mg/kg to 10 mg/kg body weight is advantageously administered about once or twice a day.

[2] = system: intranasal pressure increase induced by inhalation of antigens; experiment: Experiment 5: intranasal pressure increase induced by inhalation of antigens in actively sensitized (involving IgE participation) guinea pigs; format: in vivo; details: p.o.; for Internasal pressure increase AUC(0-30 min): 5% G.A. 339 ± 55
Experimental: Hartley male guinea pigs weighing 300 to 400 g (Nippon SLC, Shizuoka, Japan) were anesthetized with pentobarbital (30 mg/kg, i.p.) and fixed on their backs. The cervical part was opened along the median line, the trachea was opened for maintaining respiration, and a cannula was inserted. A tube (JMS cutdown tube, 2.5 mm in outer diameter and 3.5 cm in length) was inserted from the opened site of the trachea into the nasal cavity. The other end of the tube was connected to a respirator (Harvard respirator, model 683), and air was sent into the nasal cavity at a tidal volume of 4 ml and a respiration rate of 70/min. Aerosol of U-46619 (30 μg/ml) solution was prepared using an ultrasonic nebulizer and sent into the nasal cavity for 3 minutes. Changes of the intranasal pressure were determined with a differential pressure transducer connected to the branch of the tube. To prevent air leakage into the oral cavity, the oral cavity was closed with an adhesive (Aron alpha, trade name). Effects on intranasal pressure increase induced by inhalation of antigens in actively sensitized (involving IgE participation) guinea pigs Hartley male guinea pigs weighing 300 to 400 g (Nippon SLC, Shizuoka, Japan) were immunized by a modified method of the method of Levine et al. Sensitization was carried out by intraperitoneally administering physiological saline (1 ml) containing ovalbumin (OA)(10 μg) and aluminium hydroxide gel (5 mg) 4 times every 2 weeks. The sensitized guinea pigs were used one week after the final administration. These guinea pigs were anesthetized with pentobarbital (30 mg/kg, i.p.). In a similar manner to that described in Experiment 4, changes of intranasal pressure were determined. Aerosol of OA (3%) was prepared using an ultrasonic nebulizer provided between the respirator and the intranasal tube, and sent into the nasal cavity for 3 minutes. The test drug was suspended in 5% G.A. solution and orally administered one hour before the OA inhalation.

[3] = system: intranasal pressure increase induced by antigen inhalation; experiment: Experiment 6: intranasal pressure increase induced by antigen inhalation in guinea pigs sensitized by antigen inhalation; format: in vivo; details: p.o.; for Increase of intranasal pressure AUC(0-25 min): 5% G.A. 278 ± 35
Experimental: Hartley male guinea pigs weighing 300 to 400 g (Nippon SLC, Shizuoka, Japan) were anesthetized with pentobarbital (30 mg/kg, i.p.) and fixed on their backs. The cervical part was opened along the median line, the trachea was opened for maintaining respiration, and a cannula was inserted. A tube (JMS cutdown tube, 2.5 mm in outer diameter and 3.5 cm in length) was inserted from the opened site of the trachea into the nasal cavity. The other end of the tube was connected to a respirator (Harvard respirator, model 683), and air was sent into the nasal cavity at a tidal volume of 4 ml and a respiration rate of 70/min. Aerosol of U-46619 (30 μg/ml) solution was prepared using an ultrasonic nebulizer and sent into the nasal cavity for 3 minutes. Changes of the intranasal pressure were determined with a differential pressure transducer connected to the branch of the tube. To prevent air leakage into the oral cavity, the oral cavity was closed with an adhesive (Aron alpha, trade name). Effects on intranasal pressure increase induced by antigen inhalation in guinea pigs sensitized by antigen inhalation Aerosol of 1% OA solution in physiological saline was prepared and administered to Hartley male guinea pigs weighing 300 to 400 g (Nippon SLC, Shizuoka, Japan) by inhalation for 10 minutes. One week later, inhalation was performed again for sensitization. These animals were used as sensitized animals. In a similar manner to that described in Experiment 4, intranasal pressure was determined. The test drug was suspended in 5% G.A. solution and orally administered one hour before the antigen induction.

allergic rhinitis = experiment: Experiment 2: effects of perfusion in nasal cavities on allergic rhinitis in guinea pigs (pigment leakage); format: in vivo; details: 5 mg/kg perfused in nasal cavity; increase Period-3 minus Period-1; 16 animals; 5% G.A. 13.83 ± 2.61
Experimental: Effects of perfusion in nasal cavities on allergic rhinitis in guinea pigs
Aerosol of 1% ovalbumin (OA) solution in physiological saline was prepared using an ultrasonic nebulizer (TUR-3200, Nippon Kohden, Tokyo, Japan), and administered to Hartley male guinea pigs weighing 300 to 350 g (Seiwa Jikken Dohbutsu, Fukuoka, Japan) by inhalation for 10 minutes in a polyacrylamide box (20×28×20 cm) once a week (twice in all). Thus the guinea pigs were sensitized. One week after the sensitization, the guinea pigs were anesthetized with pentobarbital sodium (30 mg/kg, i.p.) and fixed on their backs on a thermal pad (Deltaphase isothermal pad, Braintree Scientific, Inc.). The cervical part was opened along the median line, the trachea was opened, a trachea cannula was inserted into the pulmonary side, and the esophagus was ligated. On the other hand, a polyethylene tube (5.5 cm in length, 2.3 mm in outer diameter, Hibiki) connected to an infusion pump was inserted at the nasal side into the choana. […] The resulting perfusion solution was centrifuged at 15,000× g for 1.5 minutes, and the amount of the pigment in the supernatant was determined by absorbance at 610 nm. The activity of the drug was evaluated using as an indication the increased amount of the leaked pigment at Period-3 (i.e., (the amount of the pigment at Period-3)--(the amount of the pigment at Period-1)).

[4] = target: T1, human platelet-derived TXA2 receptor (Homo sapiens, UniProt P21731); experiment: binding of U-46619 to human platelet-derived TXA2 receptor expressing cells (TCHO-25), receptor assay
T1 construct: expressed in transfected cells
T1 sequence (P21731 1-343): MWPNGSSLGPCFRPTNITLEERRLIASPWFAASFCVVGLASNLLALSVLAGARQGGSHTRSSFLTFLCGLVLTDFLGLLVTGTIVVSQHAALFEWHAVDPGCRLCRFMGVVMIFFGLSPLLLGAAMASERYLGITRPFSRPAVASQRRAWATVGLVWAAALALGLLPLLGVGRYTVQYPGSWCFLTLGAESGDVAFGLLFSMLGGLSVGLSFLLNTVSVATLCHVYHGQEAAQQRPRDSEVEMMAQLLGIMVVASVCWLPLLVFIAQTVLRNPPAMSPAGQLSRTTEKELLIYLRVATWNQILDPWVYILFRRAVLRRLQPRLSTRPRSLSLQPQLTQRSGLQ
Source text: Effects on the binding of U-46619 (11-9-epoxymethane-PGH2, a substance having thromboxane A2 -like activity) to human platelet-derived TXA2 receptor expressing cells
A vector containing cDNA encoding TXA2 receptor (TXA2 .cndot.R) and a vector containing cDNA encoding dihydrofolate reductase were mixed in a ratio of 10:1, and are transferred simultaneously to Chinese hamster ovary (CHO) cells by the calcium phosphate method. Two days later, these cells were inoculated into a medium containing 0.3 mM proline, 10% bovine fetus serum and 0.1 μM methotrexate in a concentration of 2000 cells/well and incubated.

What does the source list for `COc1ccc(CN(CCN(C)C)c2ccccn2)cc1` [Mepyramine]?
Inhibitory ratio (%) ([1]; Table 1, 9 animals): 81%; Inhibitory ratio (%) ([1]; Table 2, 10 animals, **P < 0.01): 77%

Which results are given for `CC1=C(C)C(=O)C(C(CCCCCC(=O)O)c2ccccc2)=C(C)C1=O` (racemic) [Compound 1, (±)-7-(3,5,6-trimethyl-1,4-benzoquinon-2-yl)-7-phenylheptanoic acid]?
mortality (ICR male mice): no mice died; Internasal pressure increase AUC(0-30 min) ([2]; 0.3 mg/kg, 12 animals): 208 ± 44; Internasal pressure increase AUC(0-30 min) ([2]; 3.0 mg/kg, 12 animals): 241 ± 32; Internasal pressure increase AUC(0-30 min) ([2]; 30 mg/kg, 13 animals, *P < 0.05): 183 ± 36; Increase of intranasal pressure AUC(0-25 min) ([3]; 0.3 mg/kg, 7 animals): 246 ± 44; Increase of intranasal pressure AUC(0-25 min) ([3]; 3.0 mg/kg, 8 animals): 201 ± 41; Increase of intranasal pressure AUC(0-25 min) ([3]; 30 mg/kg, 7 animals, *P < 0.05): 143 ± 19; Pigment concentration (allergic rhinitis): 8.87 ± 2.47 µg/mL; inhibition of the binding of U-46619 to TXA2 receptor (mode) ([4]; TCHO-25 cells): competitively inhibited

Which Kd ([4]; U-46619 based on TXA2 receptor on TCHO-25 cells, read-out: dissociation constant) does the source give for `CCCCC[C@H](O)/C=C/[C@@H]1[C@@H](C/C=C\CCCC(=O)O)[C@H]2CO[C@@H]1C2` [Compound U-46619, 11-9-epoxymethane-PGH2, reference compound] here?
The Kd was 31 nM.

For `CN1CCCC(n2nc(Cc3ccc(Cl)cc3)c3ccccc3c2=O)CC1` (stereo not shown) [Azelastine hydrochloride, reference compound], which “Internasal pressure increase AUC(0-30 min)” value ([2]; 1.0 mg/kg, 8 animals, **P < 0.01) is on record?
Its value is 92 ± 14.

What about the “Inhibitory ratio (%)” value ([2]; 1.0 mg/kg, AUC(0-30 min), 8 animals) of the same compound?
The value was 73%.

What about the “Increase of intranasal pressure AUC(0-25 min)” value ([3]; 1.0 mg/kg, 7 animals, marked **) of the same compound?
The value was 157 ± 35.

What about the “Inhibitory ratio (%)” value ([3]; 1.0 mg/kg, AUC(0-25 min), 7 animals) of the same compound?
Its value is 44%.
